Source: ChEMBL document CHEMBL5055681, “Optimized protocols for assessing libraries of poorly soluble sortase A inhibitors for antibacterial activity against medically-relevant bacteria, toxicity and enzyme inhibition” (Bioorg Med Chem, 2021)
Converted amounts (≈) assume the structure as drawn. The source made the active and inactive calls. The rule behind the calls is not given here.

Columns and labels:
Staphylococcus aureus [1] = test: Antimicrobial activity against Staphylococcus aureus ATCC 25923 assessed as bacterial growth inhibition measured after 24 hrs by resazurin dye based broth microdilution method; type: functional
Staphylococcus aureus [2] = test: Antimicrobial activity against Staphylococcus aureus ATCC 25923 assessed as bacterial growth inhibition measured after 24 hrs by CLSI based agar dilution method; type: functional
HEK293 [3] = test: Cytotoxicity against HEK293 cells assessed as reduction in cell viability at 31.3 to 1000 ug/ml measured after 24 hrs by resazurin dye based cell viability assay; conditions: human, hek293, 24 h, dose 31.3-1000 µg/ml
[4] = Ratio of MIC for antimicrobial activity against Staphylococcus aureus ATCC 25923 to IC50 for inhibition of Staphylococcus aureus sortase A using Abz-LPETGK(Dnp)-NH2 fluorescent peptide as substrate; type: toxicity
Escherichia coli = test: Antimicrobial activity against Escherichia coli ATCC 25922 assessed as bacterial growth inhibition measured after 24 hrs by resazurin dye based broth microdilution method; type: functional
Staphylococcus aureus [5] = test: Antimicrobial activity against Staphylococcus aureus MRSA ATCC 43300 assessed as bacterial growth inhibition measured after 24 hrs by resazurin dye based broth microdilution method; type: functional
[6] = Solubility of the compound in 5% DMSO in MHB assessed as precipitation at up to 3.9 ug/ml measured over 24 hrs; type: physicochemical; conditions: dose < 3.9 µg/ml
[7] = Inhibition of Staphylococcus aureus sortase A using Abz-LPETGK(Dnp)-NH2 fluorescent peptide as a substrate assessed as substrate cleavage measured over 60 mins by FRET assay
Pseudomonas aeruginosa = test: Antimicrobial activity against Pseudomonas aeruginosa ATCC 27853 assessed as bacterial growth inhibition measured after 24 hrs by resazurin dye based broth microdilution method; conditions: ATCC 27853, 24 h
Staphylococcus aureus [8] = test: Antimicrobial activity against Staphylococcus aureus ATCC 25923 assessed as zone of inhibition at 125 ug/ml measured after 24 hrs by disc diffusion method; type: functional, organism-based; conditions: dose 125.0 µg/ml
Staphylococcus aureus [9] = test: Antimicrobial activity against Staphylococcus aureus ATCC 25923 assessed as zone of inhibition at 250 ug/ml measured after 24 hrs by disc diffusion method; type: functional, organism-based; conditions: dose 250.0 µg/ml
[10] = Solubility of the compound in 5% DMSO in MHB assessed as precipitation at up to 2.0 ug/ml measured over 24 hrs; type: physicochemical; conditions: dose < 2 µg/ml
Staphylococcus aureus [11] = test: Antimicrobial activity against Staphylococcus aureus ATCC 25923 assessed as zone of inhibition at 500 ug/ml measured after 24 hrs by disc diffusion method; type: functional
[12] = Solubility of the compound in 5% DMSO in MHB assessed as precipitation at up to 500 ug/ml measured over 24 hrs; type: physicochemical; conditions: dose < 500 µg/ml
HEK293 [13] = test: Cytotoxicity against HEK293 cells assessed as reduction in cell viability at 62.5 to 2000 ug/ml measured after 24 hrs by resazurin dye based cell viability assay; conditions: human, hek293, 24 h, dose 62.5-2000 µg/ml

Row | SMILES | MIC (Staphylococcus aureus [1]) | MIC (Staphylococcus aureus [2]) | Activity (HEK293 [3]) | Ratio [4] | MIC (Escherichia coli) | MIC (Staphylococcus aureus [5]) | solubility [6] | IC50 [7] | MIC (Pseudomonas aeruginosa) | Activity (Staphylococcus aureus [8]) | Activity (Staphylococcus aureus [9]) | solubility [10] | zone of inhibition at 500 µg/mL (Staphylococcus aureus [11]; read-out: DIZ) | solubility [12] | Activity (Staphylococcus aureus [11]; dose 500.0 µg/ml) | Activity (HEK293 [13])
1 | COc1ccc2cc3[n+](cc2c1OC)CCc1cc2c(cc1-3)OCO2 [BERBERINE] | 125 µg/mL | 125 µg/mL | Non-Toxic | 18.1 | 250 µg/mL | 125 µg/mL | Soluble | 6.9 µg/mL | 500 µg/mL | Active |  |  |  |  |  | 
2 | O=C(/C=C/c1ccccc1)c1ccccc1 [CHALCONE] | 125 µg/mL (≈ 600 µM) | 125 µg/mL (≈ 600 µM) | Toxic | 5 | 500 µg/mL (≈ 2400 µM) | 125 µg/mL (≈ 600 µM) |  | 25.2 µg/mL (≈ 121 µM) | 500 µg/mL (≈ 2400 µM) |  | Active | Soluble | 16 mm |  |  | 
3 | COc1cc(/C=C/C(=O)CC(=O)/C=C/c2ccc(O)c(OC)c2)ccc1O [CURCUMIN] | 250 µg/mL (≈ 679 µM) | 250 µg/mL (≈ 679 µM) |  | 7.1 | 250 µg/mL (≈ 679 µM) | 250 µg/mL (≈ 679 µM) |  | 42.2 µg/mL (≈ 115 µM) | 250 µg/mL (≈ 679 µM) |  |  |  |  | Insoluble | Active | Toxic
4 | O=c1c(O)c(-c2ccc(O)c(O)c2)oc2cc(O)cc(O)c12 [QUERCETIN] | 250 µg/mL (≈ 827 µM) | 250 µg/mL (≈ 827 µM) |  | 6 | 250 µg/mL (≈ 827 µM) | 250 µg/mL (≈ 827 µM) |  | 35.1 µg/mL (≈ 116 µM) | 250 µg/mL (≈ 827 µM) |  | Active |  |  | Insoluble |  | Non-Toxic
